Tested on: T1, Kras G12D protein / SOS1 exchange domain
T1 construct: Cytoskeleton, Inc. (SOS1 exchange domain only) GE02
Test: Kras-SOS exchange assay (MANT-GDP)
Format: biochemical
Conditions: for Relative fluorescence intensity: PhP072 500 uM, no irradiation
Description: MANT-GDP loading assay: Kras^G12D protein was first buffer exchanged into low magnesium buffer (20 mM HEPES-NaOH (pH 7.5), 50 mM NaCl, 0.5 mM MgCl2) using a NAP5 column (catalog no.: 17-0583-1, Cytiva). The proteins were then incubated with 20-fold molar excess of N-methylanthraniloyl (MANT)-GDP (catalog no.: 69244, Sigma-Aldrich) in loading buffer (50 mM NaCl, 20 mM HEPES-NaOH [pH 7.5], 0.5 mM MgCl2, 10 mM EDTA, and 1 mM Dithiothreitol (DTT)) in a total volume of 200 μL at 20 °C for 90 min. The reaction was stopped by adding MgCl2 to a final concentration of 10 mM, then incubated at 20 °C for 30 min. The unbound MANT-GDP was removed using the NAP-5 column equilibrated with nucleotide exchange buffer (40 mM HEPES-NaOH (pH 7.5), 50 mM NaCl, 10 mM MgCl2, 2 mM DTT).
MANT-GDP exchange assay: First the MANT-GDP bound Kras G12D protein (in a final 1 μM molar concentration) was preincubated with the inhibitor molecules for 60 min. After the preincubation the samples were exposed to UV light for 10 min with a wavelength of 366 nm. The UV-treated MANT-GDP Kras-inhibitor mix was loaded into a black 384 well microplate. The nucleotide exchange reaction was initiated by adding 100 fold molar excess of GppNHp (catalog no.: G0635, Sigma-Aldrich), a non-hydrolyzable GTP analog and the SOS1 exchange domain (catalog no.: GE02, Cytoskeleton, Inc.) protein in 0.5 μM final concentration. The change in fluorescence intensity was measured every 30 s in room temperature for 60 min on an EnSpire plate reader (PerkinElmer, Inc.). The measured fluorescence values were fitted to a single exponential function by using GraphPad Prism 8 software.

Cc1ncc(CO)c(CNC(=O)CCC2(C)N=N2)c1O [PhP072, Cc1ncc(CO)c(c1O)CNC(=O)CCC2(C)N=N2]
Relative fluorescence intensity (0 sec): 1
Relative fluorescence intensity (30 sec): 1.013
Relative fluorescence intensity (60 sec): 0.9959
Relative fluorescence intensity (90 sec): 0.9972
Relative fluorescence intensity (120 sec): 0.9718
Relative fluorescence intensity (210 sec): 0.9336
Relative fluorescence intensity (240 sec): 0.9413
Relative fluorescence intensity (270 sec): 0.9207
Relative fluorescence intensity (300 sec): 0.9231
Relative fluorescence intensity (330 sec): 0.889
Relative fluorescence intensity (360 sec): 0.9144
Relative fluorescence intensity (390 sec): 0.8755
Relative fluorescence intensity (420 sec): 0.8829
Relative fluorescence intensity (450 sec): 0.8817
Relative fluorescence intensity (480 sec): 0.8573
Relative fluorescence intensity (510 sec): 0.8562
Relative fluorescence intensity (540 sec): 0.8393
Relative fluorescence intensity (570 sec): 0.8479
Relative fluorescence intensity (600 sec): 0.8268
Relative fluorescence intensity (630 sec): 0.8298
Relative fluorescence intensity (660 sec): 0.82
Relative fluorescence intensity (690 sec): 0.8367
Relative fluorescence intensity (720 sec): 0.8123
Relative fluorescence intensity (750 sec): 0.8188
Relative fluorescence intensity (780 sec): 0.7895
Relative fluorescence intensity (810 sec): 0.8173
Relative fluorescence intensity (840 sec): 0.8044
Relative fluorescence intensity (870 sec): 0.8078
Relative fluorescence intensity (900 sec): 0.796
Relative fluorescence intensity (930 sec): 0.7898
Relative fluorescence intensity (960 sec): 0.7738
Relative fluorescence intensity (990 sec): 0.7911
Relative fluorescence intensity (1020 sec): 0.7808
Relative fluorescence intensity (1050 sec): 0.7917
Relative fluorescence intensity (1080 sec): 0.7685
Relative fluorescence intensity (1110 sec): 0.7829
Relative fluorescence intensity (1140 sec): 0.763
Relative fluorescence intensity (1170 sec): 0.7869
Relative fluorescence intensity (1200 sec): 0.7802
Relative fluorescence intensity (1230 sec): 0.7626
Relative fluorescence intensity (1260 sec): 0.7487
Relative fluorescence intensity (1290 sec): 0.7649
Relative fluorescence intensity (1320 sec): 0.7515
Relative fluorescence intensity (1350 sec): 0.7769
Relative fluorescence intensity (1380 sec): 0.7498
Relative fluorescence intensity (1410 sec): 0.7689
Relative fluorescence intensity (1440 sec): 0.7375
Relative fluorescence intensity (1470 sec): 0.7324
Relative fluorescence intensity (1500 sec): 0.7377
Relative fluorescence intensity (1530 sec): 0.7512
Relative fluorescence intensity (1560 sec): 0.7561
Relative fluorescence intensity (1590 sec): 0.7642
Relative fluorescence intensity (1620 sec): 0.7532
Relative fluorescence intensity (1650 sec): 0.7322
Relative fluorescence intensity (1680 sec): 0.7337
Relative fluorescence intensity (1710 sec): 0.7447
Relative fluorescence intensity (1740 sec): 0.7262
Relative fluorescence intensity (1770 sec): 0.7004
Relative fluorescence intensity (1800 sec): 0.7223
Relative fluorescence intensity (1830 sec): 0.7275
Relative fluorescence intensity (1860 sec): 0.7142
Relative fluorescence intensity (1890 sec): 0.7142
Relative fluorescence intensity (1920 sec): 0.7251
Relative fluorescence intensity (1950 sec): 0.7143
Relative fluorescence intensity (1980 sec): 0.7167
Relative fluorescence intensity (2010 sec): 0.7199
Relative fluorescence intensity (2040 sec): 0.7182
Relative fluorescence intensity (2070 sec): 0.7197
Relative fluorescence intensity (2100 sec): 0.7234
Relative fluorescence intensity (2130 sec): 0.7107
Relative fluorescence intensity (2160 sec): 0.709
Relative fluorescence intensity (2190 sec): 0.6857
Relative fluorescence intensity (2220 sec): 0.7212
Relative fluorescence intensity (2250 sec): 0.7309
Relative fluorescence intensity (2280 sec): 0.698
Relative fluorescence intensity (2310 sec): 0.6941
Relative fluorescence intensity (2340 sec): 0.715
Relative fluorescence intensity (2370 sec): 0.7148
Relative fluorescence intensity (2400 sec): 0.6907
Relative fluorescence intensity (2430 sec): 0.6865
Relative fluorescence intensity (2460 sec): 0.6802
Relative fluorescence intensity (2490 sec): 0.7113
Relative fluorescence intensity (2520 sec): 0.7022
Relative fluorescence intensity (2550 sec): 0.6719
Relative fluorescence intensity (2580 sec): 0.6958
Relative fluorescence intensity (2910 sec): 0.6843
Relative fluorescence intensity (2940 sec): 0.6708
Relative fluorescence intensity (2970 sec): 0.6872
Relative fluorescence intensity (3000 sec): 0.6826
Relative fluorescence intensity (3030 sec): 0.6877
Relative fluorescence intensity (3060 sec): 0.6798
Relative fluorescence intensity (3090 sec): 0.6889
Relative fluorescence intensity (3120 sec): 0.6845
Relative fluorescence intensity (3150 sec): 0.6654
Relative fluorescence intensity (3180 sec): 0.6759
Relative fluorescence intensity (3210 sec): 0.6861
Relative fluorescence intensity (3240 sec): 0.6538
Relative fluorescence intensity (3270 sec): 0.6954
Relative fluorescence intensity (3300 sec): 0.6785
Relative fluorescence intensity (3330 sec): 0.6776
normalized signal, Kras-SOS exchange (Figure 4c PhP072 irradiation) (Php072 500 uM, irradiation, time 0 sec): 1

— paper PMC11292009, “Mapping protein binding sites by photoreactive fragment pharmacophores” (Communications Chemistry, 2024)
